# Tests used:
# [1] = molecular target: T1, Histone-arginine methyltransferase CARM1 (Homo sapiens) (UniProt Q86X55); assay: Selectivity interaction (Methyltransferase screen (radiometric assays, panel of 8 PRMTs, 21 protein lysine methyltransferases, 3 DNA methyltransferases, and one RNA methyltransferase)) EUB0000271b CARM1
# T1 sequence (whole entry): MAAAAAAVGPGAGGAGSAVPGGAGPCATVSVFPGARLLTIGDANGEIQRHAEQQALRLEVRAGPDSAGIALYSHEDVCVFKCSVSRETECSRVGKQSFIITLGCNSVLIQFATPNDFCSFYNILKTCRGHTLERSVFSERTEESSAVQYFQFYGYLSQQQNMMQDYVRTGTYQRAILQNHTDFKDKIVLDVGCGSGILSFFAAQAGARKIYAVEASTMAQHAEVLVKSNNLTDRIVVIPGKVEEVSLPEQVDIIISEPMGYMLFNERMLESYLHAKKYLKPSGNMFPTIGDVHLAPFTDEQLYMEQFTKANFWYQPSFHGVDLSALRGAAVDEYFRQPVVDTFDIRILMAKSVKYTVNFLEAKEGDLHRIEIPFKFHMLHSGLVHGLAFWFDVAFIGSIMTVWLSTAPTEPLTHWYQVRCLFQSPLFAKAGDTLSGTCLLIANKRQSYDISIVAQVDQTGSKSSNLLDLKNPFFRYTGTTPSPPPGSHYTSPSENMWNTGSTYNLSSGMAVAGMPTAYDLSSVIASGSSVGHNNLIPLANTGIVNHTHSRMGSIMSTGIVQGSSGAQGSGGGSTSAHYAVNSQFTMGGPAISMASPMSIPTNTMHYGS
# [2] = molecular target: Dual specificity protein kinase CLK4 (Homo sapiens, UniProt Q9HAZ1); assay: Selectivity interaction (Ambit KINOMEscan and KiNATiv profiling in Jurkat cells) EUB0000090b CLK4; format: cell-based; conditions: at 1 µM
# [3] = molecular target: T2, Mitogen-activated protein kinase 15 (Homo sapiens) (UniProt Q8TD08); assay: Selectivity interaction (KinomeScan (DiscoverX)) EUB0001079a MAPK15; conditions: at 1 µM
# T2 sequence (whole entry): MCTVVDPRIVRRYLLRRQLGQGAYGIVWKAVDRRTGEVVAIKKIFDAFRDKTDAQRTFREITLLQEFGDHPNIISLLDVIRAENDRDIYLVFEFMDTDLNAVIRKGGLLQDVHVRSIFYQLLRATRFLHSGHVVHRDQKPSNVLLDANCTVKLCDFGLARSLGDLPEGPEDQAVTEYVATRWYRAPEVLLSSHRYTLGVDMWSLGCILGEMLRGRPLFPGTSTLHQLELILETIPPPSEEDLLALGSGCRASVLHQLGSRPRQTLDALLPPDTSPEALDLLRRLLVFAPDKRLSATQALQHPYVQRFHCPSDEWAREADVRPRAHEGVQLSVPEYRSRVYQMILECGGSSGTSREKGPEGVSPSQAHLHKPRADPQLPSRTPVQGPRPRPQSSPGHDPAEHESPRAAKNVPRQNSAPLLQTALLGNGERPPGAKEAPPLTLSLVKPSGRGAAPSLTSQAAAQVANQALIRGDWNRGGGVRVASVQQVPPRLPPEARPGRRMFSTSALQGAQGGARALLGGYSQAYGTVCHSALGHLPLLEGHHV
# [4] = molecular target: Insulin-like growth factor 1 receptor (Homo sapiens, UniProt P08069); assay: Selectivity interaction (KinomeScan (DiscoverX)) EUB0001079a IGF1R; conditions: at 1 µM
# [5] = molecular target: Cyclin-dependent kinase 17 (Homo sapiens) (UniProt Q00537); assay: Selectivity interaction (KinomeScan (DiscoverX)) EUB0001619a CDK17; conditions: at 1 µM
# [6] = molecular target: T3, Serine/threonine-protein kinase Nek9 (Homo sapiens) (UniProt Q8TD19); assay: Selectivity interaction (ActivX KiNativ screen (kinase selectivity in THP-1 cell lysates)) EUB0000639a NEK9; format: subcellular; conditions: lysate, at 1 µM
# T3 sequence (whole entry): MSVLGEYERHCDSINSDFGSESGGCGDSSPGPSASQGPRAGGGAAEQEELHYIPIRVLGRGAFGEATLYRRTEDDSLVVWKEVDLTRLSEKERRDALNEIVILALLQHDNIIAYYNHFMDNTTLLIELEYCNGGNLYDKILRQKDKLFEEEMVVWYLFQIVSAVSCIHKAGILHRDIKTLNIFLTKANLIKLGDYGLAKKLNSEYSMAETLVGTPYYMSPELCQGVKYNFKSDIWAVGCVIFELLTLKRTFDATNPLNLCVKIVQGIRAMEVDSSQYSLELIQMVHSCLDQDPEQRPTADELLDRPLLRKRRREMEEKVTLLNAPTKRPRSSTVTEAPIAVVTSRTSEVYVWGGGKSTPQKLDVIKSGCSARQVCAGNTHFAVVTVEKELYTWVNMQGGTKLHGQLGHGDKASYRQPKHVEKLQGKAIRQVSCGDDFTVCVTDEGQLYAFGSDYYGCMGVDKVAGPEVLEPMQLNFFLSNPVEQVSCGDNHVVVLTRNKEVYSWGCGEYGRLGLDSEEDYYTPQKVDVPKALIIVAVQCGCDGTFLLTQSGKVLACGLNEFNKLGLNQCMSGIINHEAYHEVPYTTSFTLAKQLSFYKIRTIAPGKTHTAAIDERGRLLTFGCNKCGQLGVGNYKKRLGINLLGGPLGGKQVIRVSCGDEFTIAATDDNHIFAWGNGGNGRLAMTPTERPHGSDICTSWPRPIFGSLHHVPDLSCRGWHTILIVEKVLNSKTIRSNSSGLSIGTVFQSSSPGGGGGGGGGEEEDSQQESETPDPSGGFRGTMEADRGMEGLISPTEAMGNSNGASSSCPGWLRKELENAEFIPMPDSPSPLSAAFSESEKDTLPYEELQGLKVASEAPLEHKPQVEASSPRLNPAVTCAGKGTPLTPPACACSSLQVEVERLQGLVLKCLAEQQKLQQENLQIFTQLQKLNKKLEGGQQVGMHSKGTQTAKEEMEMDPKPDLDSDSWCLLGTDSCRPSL
# [7] = molecular target: Insulin receptor (Homo sapiens, UniProt P06213); assay: Selectivity interaction (KinomeScan (DiscoverX)) EUB0001049a INSR; conditions: at 1 µM
# [8] = molecular target: Protein-tyrosine kinase 2-beta (Homo sapiens) (UniProt Q14289); assay: Selectivity interaction (KinomeScan (DiscoverX)) EUB0001049a PTK2B; conditions: at 1 µM
# [9] = molecular target: Histone acetyltransferase p300 (Homo sapiens) (UniProt Q09472); assay: Selectivity interaction (Human bromodomain panel (DSF assay)) EUB0000233b EP300
# [10] = molecular target: Glycogen synthase kinase-3 alpha (Homo sapiens, UniProt P49840); assay: Selectivity interaction (Competition-binding assay (DiscoverX)) EUB0001632a GSK3A
# [11] = molecular target: Tyrosine-protein kinase Srms (Homo sapiens) (UniProt Q9H3Y6); assay: Selectivity interaction (KinomeScan (DiscoverX)) EUB0000695a SRMS; conditions: at 100 nM
# Protein-tyrosine kinase 2-beta (Homo sapiens), sequence (Q14289 whole entry, looked up): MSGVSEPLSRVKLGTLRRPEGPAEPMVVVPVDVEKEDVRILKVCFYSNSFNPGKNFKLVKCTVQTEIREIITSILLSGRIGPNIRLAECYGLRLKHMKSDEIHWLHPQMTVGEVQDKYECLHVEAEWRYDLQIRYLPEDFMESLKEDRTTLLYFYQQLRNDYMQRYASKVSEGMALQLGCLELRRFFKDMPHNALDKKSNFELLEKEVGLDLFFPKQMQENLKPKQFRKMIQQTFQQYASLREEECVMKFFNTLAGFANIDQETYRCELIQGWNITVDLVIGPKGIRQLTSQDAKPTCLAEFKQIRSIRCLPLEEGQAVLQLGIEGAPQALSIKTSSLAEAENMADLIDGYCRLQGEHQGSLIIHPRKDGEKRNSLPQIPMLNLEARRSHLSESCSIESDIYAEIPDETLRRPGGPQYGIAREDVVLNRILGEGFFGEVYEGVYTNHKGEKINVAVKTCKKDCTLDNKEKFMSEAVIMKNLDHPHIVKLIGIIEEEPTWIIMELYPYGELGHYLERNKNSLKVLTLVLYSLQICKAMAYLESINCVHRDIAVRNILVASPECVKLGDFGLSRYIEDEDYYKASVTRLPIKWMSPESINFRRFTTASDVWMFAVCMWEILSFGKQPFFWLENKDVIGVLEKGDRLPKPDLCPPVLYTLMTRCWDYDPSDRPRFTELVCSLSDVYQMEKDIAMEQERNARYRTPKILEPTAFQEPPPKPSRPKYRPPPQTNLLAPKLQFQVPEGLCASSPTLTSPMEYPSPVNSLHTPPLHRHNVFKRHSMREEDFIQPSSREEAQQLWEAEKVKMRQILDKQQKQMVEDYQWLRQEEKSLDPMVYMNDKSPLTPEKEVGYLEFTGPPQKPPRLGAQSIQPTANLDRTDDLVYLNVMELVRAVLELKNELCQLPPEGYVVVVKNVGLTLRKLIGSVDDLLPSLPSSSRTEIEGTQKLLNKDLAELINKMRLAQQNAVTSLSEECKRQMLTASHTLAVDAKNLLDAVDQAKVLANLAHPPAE
# Dual specificity protein kinase CLK4, sequence (Q9HAZ1 whole entry, looked up): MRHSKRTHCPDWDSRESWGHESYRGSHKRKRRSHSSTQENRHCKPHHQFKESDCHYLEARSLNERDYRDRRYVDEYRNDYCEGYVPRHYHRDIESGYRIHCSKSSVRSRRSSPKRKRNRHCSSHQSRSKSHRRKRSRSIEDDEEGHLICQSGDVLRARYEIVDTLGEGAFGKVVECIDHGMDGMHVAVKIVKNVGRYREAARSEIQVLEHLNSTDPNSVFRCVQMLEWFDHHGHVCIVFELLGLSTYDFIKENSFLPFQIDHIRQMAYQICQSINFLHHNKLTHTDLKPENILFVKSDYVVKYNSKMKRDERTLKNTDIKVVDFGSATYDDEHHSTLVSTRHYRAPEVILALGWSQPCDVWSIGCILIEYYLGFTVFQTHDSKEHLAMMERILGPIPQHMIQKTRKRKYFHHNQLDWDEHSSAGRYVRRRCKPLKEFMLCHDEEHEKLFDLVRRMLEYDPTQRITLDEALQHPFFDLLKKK
# Histone acetyltransferase p300 (Homo sapiens), sequence (Q09472 whole entry): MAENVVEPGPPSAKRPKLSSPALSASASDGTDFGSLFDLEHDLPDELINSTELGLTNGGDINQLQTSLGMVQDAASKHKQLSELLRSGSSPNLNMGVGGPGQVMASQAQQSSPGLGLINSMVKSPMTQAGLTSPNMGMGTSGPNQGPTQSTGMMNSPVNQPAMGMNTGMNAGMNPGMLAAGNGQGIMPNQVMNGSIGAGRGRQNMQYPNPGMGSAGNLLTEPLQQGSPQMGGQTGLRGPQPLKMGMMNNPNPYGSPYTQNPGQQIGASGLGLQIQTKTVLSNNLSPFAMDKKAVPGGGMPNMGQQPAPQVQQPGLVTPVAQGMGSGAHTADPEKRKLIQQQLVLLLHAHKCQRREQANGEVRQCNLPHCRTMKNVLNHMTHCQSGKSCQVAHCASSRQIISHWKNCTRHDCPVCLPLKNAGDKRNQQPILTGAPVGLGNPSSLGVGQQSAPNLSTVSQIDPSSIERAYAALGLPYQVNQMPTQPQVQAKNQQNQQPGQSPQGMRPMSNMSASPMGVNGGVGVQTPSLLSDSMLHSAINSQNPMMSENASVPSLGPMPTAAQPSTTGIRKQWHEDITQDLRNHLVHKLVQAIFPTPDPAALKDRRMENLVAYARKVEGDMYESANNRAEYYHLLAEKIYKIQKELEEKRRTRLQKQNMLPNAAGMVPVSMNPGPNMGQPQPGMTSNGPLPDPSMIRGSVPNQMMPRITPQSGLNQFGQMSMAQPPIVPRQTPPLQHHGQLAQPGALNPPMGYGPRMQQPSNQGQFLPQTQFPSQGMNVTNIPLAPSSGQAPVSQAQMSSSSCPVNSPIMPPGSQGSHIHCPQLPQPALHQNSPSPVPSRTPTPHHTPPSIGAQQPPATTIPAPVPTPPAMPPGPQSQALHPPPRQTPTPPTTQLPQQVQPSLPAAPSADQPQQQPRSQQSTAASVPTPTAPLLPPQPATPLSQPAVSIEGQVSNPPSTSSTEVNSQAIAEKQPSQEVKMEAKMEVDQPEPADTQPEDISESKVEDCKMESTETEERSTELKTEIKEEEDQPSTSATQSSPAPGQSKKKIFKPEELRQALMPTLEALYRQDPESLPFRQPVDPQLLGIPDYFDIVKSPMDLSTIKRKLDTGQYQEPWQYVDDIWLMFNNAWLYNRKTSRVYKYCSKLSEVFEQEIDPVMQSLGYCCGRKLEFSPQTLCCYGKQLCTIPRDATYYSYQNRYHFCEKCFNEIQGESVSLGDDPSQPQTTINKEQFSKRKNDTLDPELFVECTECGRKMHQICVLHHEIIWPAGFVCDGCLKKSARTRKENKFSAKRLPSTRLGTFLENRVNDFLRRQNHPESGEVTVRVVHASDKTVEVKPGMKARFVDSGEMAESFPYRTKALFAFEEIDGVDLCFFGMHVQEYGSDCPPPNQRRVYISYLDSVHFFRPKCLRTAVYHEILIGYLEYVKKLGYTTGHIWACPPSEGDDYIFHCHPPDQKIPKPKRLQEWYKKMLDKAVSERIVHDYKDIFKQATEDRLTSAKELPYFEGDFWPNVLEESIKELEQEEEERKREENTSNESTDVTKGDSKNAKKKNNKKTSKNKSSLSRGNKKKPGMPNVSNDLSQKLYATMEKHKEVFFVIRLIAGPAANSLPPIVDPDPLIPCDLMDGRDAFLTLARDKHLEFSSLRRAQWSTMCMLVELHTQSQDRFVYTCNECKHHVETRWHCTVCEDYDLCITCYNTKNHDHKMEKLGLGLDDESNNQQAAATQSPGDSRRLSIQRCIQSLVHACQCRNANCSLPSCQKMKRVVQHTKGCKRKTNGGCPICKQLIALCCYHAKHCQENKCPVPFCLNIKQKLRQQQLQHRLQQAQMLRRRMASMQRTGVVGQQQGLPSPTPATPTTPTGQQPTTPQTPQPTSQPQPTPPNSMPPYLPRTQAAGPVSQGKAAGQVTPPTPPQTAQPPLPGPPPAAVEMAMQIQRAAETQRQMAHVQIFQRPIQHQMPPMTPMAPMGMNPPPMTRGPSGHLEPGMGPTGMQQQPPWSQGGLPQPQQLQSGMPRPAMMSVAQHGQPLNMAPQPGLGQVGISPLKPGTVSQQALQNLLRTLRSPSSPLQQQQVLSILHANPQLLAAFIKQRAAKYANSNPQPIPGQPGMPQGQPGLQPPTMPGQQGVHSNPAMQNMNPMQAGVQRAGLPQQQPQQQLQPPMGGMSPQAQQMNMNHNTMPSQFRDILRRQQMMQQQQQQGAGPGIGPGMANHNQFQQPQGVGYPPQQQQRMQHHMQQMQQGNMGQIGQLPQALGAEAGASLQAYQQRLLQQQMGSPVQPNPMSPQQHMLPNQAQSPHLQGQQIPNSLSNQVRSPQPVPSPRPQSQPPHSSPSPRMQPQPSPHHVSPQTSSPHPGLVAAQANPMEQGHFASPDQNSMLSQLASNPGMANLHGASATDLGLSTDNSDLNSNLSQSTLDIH
# Glycogen synthase kinase-3 alpha, sequence (P49840 whole entry): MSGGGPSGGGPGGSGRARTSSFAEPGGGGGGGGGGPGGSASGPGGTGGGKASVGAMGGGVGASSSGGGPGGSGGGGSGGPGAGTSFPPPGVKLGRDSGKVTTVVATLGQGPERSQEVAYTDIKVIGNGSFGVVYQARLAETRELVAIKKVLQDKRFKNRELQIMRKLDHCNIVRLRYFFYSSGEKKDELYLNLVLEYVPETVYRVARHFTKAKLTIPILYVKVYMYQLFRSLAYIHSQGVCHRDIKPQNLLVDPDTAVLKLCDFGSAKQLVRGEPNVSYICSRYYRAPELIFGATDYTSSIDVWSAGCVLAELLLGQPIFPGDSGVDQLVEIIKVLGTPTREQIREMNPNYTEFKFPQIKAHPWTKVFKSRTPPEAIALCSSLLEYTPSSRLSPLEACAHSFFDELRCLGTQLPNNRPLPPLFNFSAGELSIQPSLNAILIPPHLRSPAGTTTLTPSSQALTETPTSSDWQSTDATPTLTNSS
# Cyclin-dependent kinase 17 (Homo sapiens), sequence (Q00537 whole entry, looked up): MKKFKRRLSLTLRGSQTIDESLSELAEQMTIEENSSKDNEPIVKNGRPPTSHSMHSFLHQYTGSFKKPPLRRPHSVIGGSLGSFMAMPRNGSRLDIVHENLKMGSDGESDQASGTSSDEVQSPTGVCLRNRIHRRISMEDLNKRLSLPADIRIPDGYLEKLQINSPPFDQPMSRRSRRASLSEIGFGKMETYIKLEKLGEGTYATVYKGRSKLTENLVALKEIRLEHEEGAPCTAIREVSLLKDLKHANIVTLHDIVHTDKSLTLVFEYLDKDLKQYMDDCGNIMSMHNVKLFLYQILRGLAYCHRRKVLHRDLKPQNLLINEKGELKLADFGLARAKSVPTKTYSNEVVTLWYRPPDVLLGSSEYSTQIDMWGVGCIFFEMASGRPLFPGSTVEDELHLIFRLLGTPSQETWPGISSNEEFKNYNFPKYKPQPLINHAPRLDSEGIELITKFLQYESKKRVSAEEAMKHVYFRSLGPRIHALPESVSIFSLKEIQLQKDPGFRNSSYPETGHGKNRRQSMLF
structure (smiles),measurement,setting,value
Cc1cc(C)cc([C@@H]2c3cc(C)ccc3NC(=O)CN2C(=O)c2ccc(Br)s2)c1,% of activity,[1]; at 1 µM,98%
same,% of activity,[1]; at 10 µM,96.3%
CN(C)C/C=C/C(=O)Nc1ccc(C(=O)N2CCCC(Nc3ncc(Cl)c(-c4c[nH]c5ccccc45)n3)C2)cc1 (configuration not stated),% of control,[2],73%
Nc1cnc(N2CCc3cc(S(=O)(=O)Nc4c(F)cc(Cl)cc4F)cc(N4CCCC4=O)c32)nc1 [TP-020n],% of control,[3],84%
same,% of control,[4],90%
N#Cc1cccc(-c2c[nH]c3ncnc(N4CCOCC4)c23)c1,% of control,[5],100%
CC[C@@H]1[C@H](F)C(=O)N[C@@H]1COc1nccc2cc(C(N)=O)c(OC)cc12 [ZIMLOVISERTIB],% of inhibition,[6],-1.1%
COc1cc(Nc2nc(C)cc(-c3cnn4nc(OC)ccc34)n2)cc(C(F)(F)F)c1,% of control,[7],71%
same,% of control,[8],99%
CN(C)CCCOc1ccc(-c2cc(NCCCn3cccn3)nc(S(C)(=O)=O)n2)cc1,dTM,[9],< 2 K
Cn1cc(-n2cnc3c(NCc4nc5cc(Cl)c(Cl)cc5[nH]4)nc(N4CCOCC4)nc32)cn1,Kd,[10],1200 nM
Cc1cc(F)c(C(=O)Nc2cccc(-c3nncn3C(C)C)n2)cc1-n1cnc(C2CC2)c1,% of control,[11],100%

# — ChEMBL document CHEMBL5465560, “Selectivity Literature for EUbOPEN Chemogenomic Library” (2024)
